According to patent US8816084B1, “Crystals of morphinan derivative, manufacturing method thereof, and pharmaceutical composition using the same” (priority 2013, dated 2014):
Like-named read-outs stand apart in the source and are kept apart here.

Experiments:
pH Stability Test = type: physicochemical; conditions: 100 mg solid dissolved in 10 ml deionized water, pH meter; hydrochloride
Description: First, 100 mg of the X-form crystal solid of Examples 1 to 3, and the amorphous solid of Comparative Examples 1-6 were dissolved in 10 ml of deionized water respectively. Then, pH value of the resulting solutions was measured with a pH meter (Type No: Mettler Toledo MP 250). The measurement results are shown in Table 3, wherein the result of the amorphous and A-form crystals of Comparative Examples 4-9 was quoted from U.S. Pat. No. 7,803,942B2.

[1] = result quoted from U.S. Pat. No. 7,803,942B2; hydrochloride; cited from earlier work

## CN(C(=O)/C=C/c1ccoc1)[C@@H]1CC[C@@]2(O)[C@H]3Cc4ccc(O)c5c4[C@@]2(CCN3CC2CC2)[C@H]1O5.Cl (relative stereo) [Comparative Example 1, 17-cyclopropylmethyl-3,14β-dihydroxy-4,5α-epoxy-6β-[N-methyl-trans-3-(3-furyl)acrylamido]morphinan hydrochloride]
pH Stability Test
  pH: 4.4

## CN(C(=O)/C=C/c1ccoc1)[C@@H]1CC[C@@]2(O)[C@H]3Cc4ccc(O)c5c4[C@@]2(CCN3CC2CC2)[C@H]1O5.Cl (relative stereo) [Comparative Example 2, 17-cyclopropylmethyl-3,14β-dihydroxy-4,5α-epoxy-6β-[N-methyl-trans-3-(3-furyl)acrylamido]morphinan hydrochloride]
pH Stability Test
  pH: 2.6

## CN(C(=O)/C=C/c1ccoc1)[C@@H]1CC[C@@]2(O)[C@H]3Cc4ccc(O)c5c4[C@@]2(CCN3CC2CC2)[C@H]1O5.Cl (relative stereo) [Comparative Example 3, 17-cyclopropylmethyl-3,14β-dihydroxy-4,5α-epoxy-6β-[N-methyl-trans-3-(3-furyl)acrylamido]morphinan hydrochloride]
pH Stability Test
  pH: 3.7

## CN(C(=O)/C=C/c1ccoc1)[C@@H]1CC[C@@]2(O)[C@H]3Cc4ccc(O)c5c4[C@@]2(CCN3CC2CC2)[C@H]1O5.Cl (relative stereo) [Comparative Example 4, 17-cyclopropylmethyl-3,14β-dihydroxy-4,5α-epoxy-6β-[N-methyl-trans-3-(3-furyl)acrylamido]morphinan hydrochloride]
[1]
  pH: 3.7

## CN(C(=O)/C=C/c1ccoc1)[C@@H]1CC[C@@]2(O)[C@H]3Cc4ccc(O)c5c4[C@@]2(CCN3CC2CC2)[C@H]1O5.Cl (relative stereo) [Comparative Example 5, 17-cyclopropylmethyl-3,14β-dihydroxy-4,5α-epoxy-6β-[N-methyl-trans-3-(3-furyl)acrylamido]morphinan hydrochloride]
[1]
  pH: 4.7

## CN(C(=O)/C=C/c1ccoc1)[C@@H]1CC[C@@]2(O)[C@H]3Cc4ccc(O)c5c4[C@@]2(CCN3CC2CC2)[C@H]1O5.Cl (relative stereo) [Comparative Example 6, 17-cyclopropylmethyl-3,14β-dihydroxy-4,5α-epoxy-6β-[N-methyl-trans-3-(3-furyl)acrylamido]morphinan hydrochloride]
[1]
  pH: 3.5

## CN(C(=O)/C=C/c1ccoc1)[C@@H]1CC[C@@]2(O)[C@H]3Cc4ccc(O)c5c4[C@@]2(CCN3CC2CC2)[C@H]1O5.Cl (relative stereo) [Comparative Example 7, 17-cyclopropylmethyl-3,14β-dihydroxy-4,5α-epoxy-6β-[N-methyl-trans-3-(3-furyl)acrylamido]morphinan hydrochloride]
[1]
  pH: 5.8

## CN(C(=O)/C=C/c1ccoc1)[C@@H]1CC[C@@]2(O)[C@H]3Cc4ccc(O)c5c4[C@@]2(CCN3CC2CC2)[C@H]1O5.Cl (relative stereo) [Comparative Example 8, 17-cyclopropylmethyl-3,14β-dihydroxy-4,5α-epoxy-6β-[N-methyl-trans-3-(3-furyl)acrylamido]morphinan hydrochloride]
[1]
  pH: 5.4

## CN(C(=O)/C=C/c1ccoc1)[C@@H]1CC[C@@]2(O)[C@H]3Cc4ccc(O)c5c4[C@@]2(CCN3CC2CC2)[C@H]1O5.Cl (relative stereo) [Comparative Example 9, 17-cyclopropylmethyl-3,14β-dihydroxy-4,5α-epoxy-6β-[N-methyl-trans-3-(3-furyl)acrylamido]morphinan hydrochloride]
[1]
  pH: 5.6

## CN(C(=O)/C=C/c1ccoc1)[C@@H]1CC[C@@]2(O)[C@H]3Cc4ccc(O)c5c4[C@@]2(CCN3CC2CC2)[C@H]1O5.Cl (relative stereo) [Example 1, 17-cyclopropylmethyl-3,14β-dihydroxy-4,5α-epoxy-6β-[N-methyl-trans-3-(3-furyl)acrylamido]morphinan hydrochloride]
pH Stability Test
  pH: 3.5

## CN(C(=O)/C=C/c1ccoc1)[C@@H]1CC[C@@]2(O)[C@H]3Cc4ccc(O)c5c4[C@@]2(CCN3CC2CC2)[C@H]1O5.Cl (relative stereo) [Example 2, 17-cyclopropylmethyl-3,14β-dihydroxy-4,5α-epoxy-6β-[N-methyl-trans-3-(3-furyl)acrylamido]morphinan hydrochloride]
pH Stability Test
  pH: 3.6

## CN(C(=O)/C=C/c1ccoc1)[C@@H]1CC[C@@]2(O)[C@H]3Cc4ccc(O)c5c4[C@@]2(CCN3CC2CC2)[C@H]1O5.Cl (relative stereo) [Example 3, 17-cyclopropylmethyl-3,14β-dihydroxy-4,5α-epoxy-6β-[N-methyl-trans-3-(3-furyl)acrylamido]morphinan hydrochloride]
pH Stability Test
  pH: 3.6
